US20060009520A1, “Retinoid-based methods for altering macrophage cholesterol” (priority 2004, published 2006)

Experiments:
[1] = system: SREBP-1c, FAS, ABCA1, Cyp26 mRNA in liver; experiment: Gene expression in mouse liver after intraperitoneal injection; type: in vivo; conditions: mice, intraperitoneal 1 or 10 mg/kg, 24 h
Description: (A) RAR regulation of ABCA1 and SREBP-1c expression in mouse peritoneal macrophages. […] ABCA1 and SREBP-1c mRNA levels were determined by quantitative real-time reverse transcription-PCR and standardized against β-actin mRNA levels. The results are expressed as mean±the SEM (n=4 and 6). *, P<0.05; **, P<0.01 (compared to control). […] After 24 h, the mice were anesthetized, the livers were perfused, and the square lobes were removed for isolation of RNA. […] The results are expressed as mean±the SEM (n=5).
Total RNA was isolated from mouse peritoneal macrophages or ˜50 mg of mouse liver tissue by using the RNeasy Mini kit (Qiagen, Valencia, Calif.) or RNA-Bee reagent (Tel-Test, Inc., Friendswood, Tex.), respectively, according to the manufacturer's protocol. Real-time quantitative PCR assays were performed by using the Mx4000 Quantitative PCR System (Stratagene, La Jolla, Calif.). Briefly, 5 μg of total RNA was treated with RNase-free DNase I (Ambion, Austin, Tex.), and first-strand cDNA was synthesized with oligo(dT)12-18 by using a Superscript II RNase H^− reverse transcriptase reagent kit (Invitrogen) according to the manufacturer's protocol. For quantification of mouse ABCA1, ABCG1, SREBP-1c, LXRα, ApoE, and fatty acid synthase (FAS) mRNA levels, each amplification mixture contained 62.5 ng of cDNA, appropriate concentrations of forward and reverse primers and of dual-labeled fluorogenic probe (Biosearch Technologies, Novato, Calif.), and 12.5 μl of TaqMan Universal PCR master mix (Applied Biosystems, Foster City, Calif.). PCR thermocycling parameters were 50° C. for 2 min, 95° C. for 10 min, and 45 cycles of 95° C. for 15 s and 60° C. for 1 min. All samples were analyzed for β-actin expression in the same run. Quantitative expression values were extrapolated from standard curves for the gene of interest with 10-fold dilutions of cDNA (in triplicate). Each sample was normalized to β-actin, triplicates were averaged, and relative mRNA levels were determined. […]
For quantification of mouse Cyp26 mRNA levels, each amplification mixture (25 μ) contained 62.5 ng of cDNA, 100 nM concentrations of reverse and forward primers, and 2.5 μl of 10× SYBR Green PCR master mix (Perkin-Elmer Life Sciences, Boston, Mass.). Quantitative expression values were extrapolated from standard curves for Cyp26 expression with 10-fold dilutions of cDNA (in triplicate). Each sample was normalized to β-actin that was deduced from TaqMan assays, triplicate results were averaged, and relative Cyp26 mRNA levels were determined. […]

[2] = system: ABCA1, ABCG1, SREBP-1c, apoE, LXRα, Cyp26 mRNA; experiment: Quantitative real-time PCR of LXR target genes and Cyp26 in human monocyte-derived macrophages; type: cell-based; conditions: human macrophages
Description: (§1) For quantification of mouse Cyp26 mRNA levels, each amplification mixture (25 μ) contained 62.5 ng of cDNA, 100 nM concentrations of reverse and forward primers, and 2.5 μl of 10× SYBR Green PCR master mix (Perkin-Elmer Life Sciences, Boston, Mass.). Quantitative expression values were extrapolated from standard curves for Cyp26 expression with 10-fold dilutions of cDNA (in triplicate). Each sample was normalized to β-actin that was deduced from TaqMan assays, triplicate results were averaged, and relative Cyp26 mRNA levels were determined. The primers mCyp26 F (5′-[…]-3′) and mCyp26 R (5′-[…]-3′) were used. RNA measurements from human monocyte-derived macrophages were performed as described previously (10, 44).

ABCA1 protein = experiment: Western blot of ABCA1 protein in RARγ−/− mouse peritoneal macrophages; type: cell-based; conditions: 5 μM, 24 h
Description: Protein extracts from macrophages were prepared by lysing the cells in modified radioimmunoprecipitation assay buffer (50 mM Tris, 150 mM NaCl, 1 mM EDTA. 1% Triton X-100) containing a protease inhibitor cocktail (Complete EDTA Free; Roche). Protein content in the extracts was determined by using the DC protein assay (Bio-Rad, Hercules, Calif.). Equal amounts of protein (40 to 50 μg) were separated by electrophoresis with 4 to 15% acrylamide gradient gels (Bio-Rad) and then transferred to nitrocellulose membrane (Trans-Blot Transfer Medium; Bio-Rad). Membranes were probed with anti-ABCA1 antibody (Novus Biologicals, Littleton, Colo.) and anti-β-actin antibody (Sigma) according to the manufacturer's recommendations. Immunoblots were developed by using a chemiluminescent detection system (Super Signal West Pico chemiluminescent substrate; Pierce, Rockford, Ill.).

[3] = system: ABCA1, ABCG1, SREBP-1c, apoE, LXRα, Cyp26 mRNA; experiment: Quantitative real-time PCR of LXR target genes and Cyp26 in mouse peritoneal macrophages; type: cell-based
Description: Total RNA was isolated from mouse peritoneal macrophages or ˜50 mg of mouse liver tissue by using the RNeasy Mini kit (Qiagen, Valencia, Calif.) or RNA-Bee reagent (Tel-Test, Inc., Friendswood, Tex.), respectively, according to the manufacturer's protocol. Real-time quantitative PCR assays were performed by using the Mx4000 Quantitative PCR System (Stratagene, La Jolla, Calif.). Briefly, 5 μg of total RNA was treated with RNase-free DNase I (Ambion, Austin, Tex.), and first-strand cDNA was synthesized with oligo(dT)12-18 by using a Superscript II RNase H^− reverse transcriptase reagent kit (Invitrogen) according to the manufacturer's protocol. For quantification of mouse ABCA1, ABCG1, SREBP-1c, LXRα, ApoE, and fatty acid synthase (FAS) mRNA levels, each amplification mixture contained 62.5 ng of cDNA, appropriate concentrations of forward and reverse primers and of dual-labeled fluorogenic probe (Biosearch Technologies, Novato, Calif.), and 12.5 μl of TaqMan Universal PCR master mix (Applied Biosystems, Foster City, Calif.). PCR thermocycling parameters were 50° C. for 2 min, 95° C. for 10 min, and 45 cycles of 95° C. for 15 s and 60° C. for 1 min. All samples were analyzed for β-actin expression in the same run. Quantitative expression values were extrapolated from standard curves for the gene of interest with 10-fold dilutions of cDNA (in triplicate). Each sample was normalized to β-actin, triplicates were averaged, and relative mRNA levels were determined. The following mouse primers and probes were used: mouse ABCA1 (mABCA1) forward (F) (5′-[…]-3′), mABCA1 reverse (R) (5′-[…]-3′), and mABCA1 TaqMan probe (5′-FAM-[…]-BHQ-3′); mABCG1 F (5′-[…]-3′), mABCG1 R (5′-[…]-3′), and mABCG1 TaqMan probe (5′-FAM-[…]-BHQ-3′); mSREBP-1c F (5′-[…]-3′), mSREBP-1c R (5′-[…]-3′), and mSREBP-1c TaqMan probe (5′-FAM-[…]-BHQ-3′); mApoE F (5′-[…]-3′), mApoE R (5′-[…]-3′), and mApoE TaqMan probe (5′-FAM-[…]-BHQ-3′); mLXRα F (5′-[…]-3′), mLXRα R (5′-[…]-3′), and mLXRα TaqMan probe (5′-FAM-[…]-BHQ-3′); mFAS F (5′-[…]-3′), mFAS R (5′-[…]-3′), and mFAS TaqMan probe (5′-FAM-[…]-BHQ-3′); and mβ-actin F (5′-[…]-3′), mβ-actin R (5′-[…]-3′), and mβ-actin TaqMan probe (5′-JOE-[…]-BHQ-3′).
as §1

[4] = Plasma and hepatic lipid analysis; type: in vivo, mouse; conditions: mice; for Hepatic lipid Cholesterol / Hepatic lipid Triglycerides / Plasma lipid Cholesterol / Plasma lipid Triglycerides: 24 h
Description: Mice were fasted for 3 h before blood collection. Plasma was separated by centrifugation and kept at −80° C. until lipid analysis. Liver tissue samples (50 to 75 mg) were homogenized in PBS. Lipids were then extracted with chloroform-methanol (2/1 [vol/vol]) and redissolved in isopropanol. Triglyceride and cholesterol were measured in plasma and in the liver lipid extracts by using commercial kits (Wako Chemicals, Neusse Germany).

[5] = mouse peritoneal macrophages, TTNPB 1 μM, 24 h

## C/C(=C\c1ccc(C(=O)O)cc1)c1ccc2c(c1)C(C)(C)CCC2(C)C [TTNPB, 4-[E-2-5,6.7.8-tetrahydro-5,5,8,8-tetramethyl-2-naphthalenyl-l-propenyl]benzoic acid]
[1]
  Cyp26 mRNA in liver: markedly induced
  FAS gene expression in liver: no response
  hepatic ABCA1 mRNA: not induced
  hepatic SREBP-1c mRNA: repressed
[2]
  Cyp26 mRNA increase: ~6 fold
  induction of ABCA1 or other LXR target genes, compared with ATRA: much less effective than ATRA
ABCA1 protein
  ABCA1 protein induction: still induced
[3]; [5]
  ABCA1 mRNA: induction of macrophage ABCA1 mRNA
  SREBP-1c mRNA: no effect
[3]; murine macrophages
  Cyp26 mRNA increase: 30 fold
[4]; 1 mg/kg intraperitoneally
  Hepatic lipid Cholesterol: 1.43 ± 0.07 μg/mg of tissue
  Hepatic lipid Triglycerides: 11.57 ± 4.05 μg/mg of tissue
  Plasma lipid Cholesterol: 64.1 ± 8.0 mg/dL
  Plasma lipid Triglycerides: 35.1 ± 4.0 mg/dL
[4]; 10 mg/kg intraperitoneally
  Hepatic lipid Cholesterol: 1.31 ± 0.20 μg/mg of tissue
  Hepatic lipid Triglycerides: 9.25 ± 1.98 μg/mg of tissue
  Plasma lipid Cholesterol: 58.0 ± 4.9 mg/dL
  Plasma lipid Triglycerides: 33.1 ± 3.1 mg/dL
[4]; intraperitoneal
  effect on hepatic triglyceride content: did not result in an increase
[4]; intraperitoneal, higher doses
  effect on triglyceride levels in plasma: significant reduction
